{"source": "patent US20170340905A1", "about": "“MACROCYCLIC KETONE AS MALODOR COUNTERACTING INGREDIENT” (Firmenich SA, priority 2014, published 2017)", "key": {"[1]": {"assay": "Sensory malodor reduction test, Sniffin' Sticks odor pens, pet malodor", "details": "for Average Perceived Malodor Intensity (APMI) / Average Perceived Overall Odor Intensity (APOOI): scale 0-10", "procedure": "(§1) The Compound 1, as defined above, was tested, using current sensory analysis methods, for its ability to reduce the perception of bathroom, tobacco, kitchen, pet and body malodors.\n(§2) In the following description, the test concentration of the malodor sample used in each case was selected so as to provide a perceived malodor intensity, when evaluated in Sniffin' Sticks odor pens as described below, that was approximately of the order of 6 units on the scale described under Section C below.\nPet malodor: 0.5% by weight, in propylene glycol\n(§3) The test concentration of the Compound 1 used in each of the malodor reduction tests was selected so as to provide a perceived intensity, when evaluated in Sniffin' Sticks odor pens as described below, that was approximately of the order of 6 units on the scale described under Section C below. The concentration of Compound 1 that was perceived as comprising an odor intensity of about 6 when evaluated in Sniffin' Sticks odor pens was 16% by weight in propylene glycol.\n(§4) Stock solutions were prepared as follows: • Compound 1 32% by weight: 12.8 g of Compound 1 was mixed with 27.2 g of propylene glycol. • Bathroom malodor 0.6% by weight: 0.6 g of bathroom malodor was mixed with 99.4 g of propylene glycol. • Kitchen malodor 60% by weight: 12.0 g of kitchen malodor was mixed with 8.0 g of propylene glycol. • Body malodor 1% by weight: 1.0 g of body malodor was mixed with 99.0 g of propylene glycol. • Pet malodor 1% by weight: 1.0 g of pet malodor was mixed with 99.0 g of propylene glycol. • The tobacco malodor was used as is.\n(§5) Each sensory test comprised 3 samples: a malodor only sample; a test sample comprising a combination of […] and the test malodor; and, a Compound 1 only sample. The samples for the sensory tests were prepared as follows:\n(§6) Malodor only sample: in a separate beaker 3.0 g of malodor stock solution, was mixed with 3.0 g of propylene glycol. Once fully homogenized, 2.0 g of the resulting solution was applied to the absorbent fiber in the body of a Sniffin' Stick odor pen (origin: Burghart Messtechnik GmbH). The odor pen was immediately capped and allowed to equilibrate for 24 hours before use.\nas §6, with “Compound 1” for “Malodor”, “Compound 1” for “malodor”, “solution” for “solution,”\nas §6, with “Test samples:” for “Malodor only sample:”, “Compound 1” for “malodor”, “solution” for “solution,”, “malodor stock solution.” for “propylene glycol.”\n(§7) The samples were assessed by a panel of 19 trained panelists. By “trained panelists” we mean here individuals that had previously been screened for olfactive acuity and were experienced in rating the perfume and malodor intensity. Moreover, the panelists were prior acquainted with the malodor sample before carrying out the malodor reduction efficacy test.\n(§8) Each test comprised a malodor only sample, a Compound 1 only sample, and a test sample that comprised Compound 1 and the malodor. […]"}, "[2]": {"tested_on": "Streptococcus agalactiae URI3", "assay": "MIC test in 96 well plates", "assay_type": "cell-based", "details": "S. agalactiae, associated with urine/bathroom", "procedure": "(§9) Bacterial solutions of four bacterial strains were prepared for MIC test as follows. Stock cultures stored at -80° C. were subcultured onto agar plate media, and incubated at 37° C. for 24 h to obtain single colonies. Single colonies of the primary cultures were inoculated into broth media and incubated at 37° C., 160 rpm overnight. Aliquots of overnight cultures were inoculated into 50 ml of fresh broth media, and incubated at 37° C., 160 rpm. When the OD reached the target value for each strain (see Table 1), cells were harvested by centrifugation at 5000 rpm for 10 min, and then resuspended in the same fresh broth media at the same volume before the centrifugation. Aliquots (1.1 ml) of each cell suspension were diluted in 200 ml of the same broth media as the bacterial solutions for the MIC test. [table] Sample solutions of casmirone and reference material ([…]) were prepared as follows. Stock solutions of 1% and 20% were prepared in ethanol, and then seven serial dilutions of each stock solution were prepared in ethanol to obtain a total of 16 solutions of casmirone or the reference material. Aliquot (10 μl) of each solution was used for MIC test. The tested final concentrations of each material were 29, 44, 66, 99, 148, 222, 333, 500, 590, 900, 1300, 2000, 3000, 4500, 6700, 10000 ppm. The test material control was trans-hexenal, a known material for MIC tests and control tests (e.g. see Int J Food Microbiol. 2010 January 1;136(3):304-9). MIC test were performed in 96 well plates. […] Column 1 contained bacterial solution only (the positive growth control), and column 12 contained growth media only (the negative growth control). Aliquots (10 μl) of sample solutions were mixed with 190 μl of bacterial solutions in growth media, at concentrations of 10^5 to 10^6 cfu/ml, in wells of the 96 well plates. Three replicates for solution. The 96 wells plates were incubated at 37° C., 160 rpm overnight. After incubation, wells of 96 well plates were examined. Turbid wells were regarded as an indication of microbial growth. Minimal inhibition concentration (MIC) was determined as the lowest concentration where no growth was observed. Average MIC value of the three replicates was calculated against each strain (see Table 3)."}, "[3]": {"tested_on": "Staphylococcus aureus DSMZ 1104", "assay": "MIC test in 96 well plates", "assay_type": "cell-based", "details": "S. aureus, associated with hygiene", "procedure": "as §9"}, "[4]": {"tested_on": "Staphylococcus haemolyticus ATCC 114126", "assay": "MIC test in 96 well plates", "assay_type": "cell-based", "details": "S. haemolyticus, associated with body odor", "procedure": "as §9"}, "[5]": {"tested_on": "Morganella morganii URI62", "assay": "MIC test in 96 well plates", "assay_type": "cell-based", "details": "M. morganii, associated with urine/bathroom", "procedure": "as §9"}, "[6]": {"assay": "Sensory malodor reduction test, Sniffin' Sticks odor pens, body malodor", "details": "for Average Perceived Malodor Intensity (APMI) / Average Perceived Overall Odor Intensity (APOOI): scale 0-10", "procedure": "as §1, §2\nBody malodor: 0.5% by weight in propylene glycol\nas §3, §4, §5, §6\nas §6, with “Compound 1” for “Malodor”, “Compound 1” for “malodor”, “solution” for “solution,”\nas §6, with “Test samples:” for “Malodor only sample:”, “Compound 1” for “malodor”, “solution” for “solution,”, “malodor stock solution.” for “propylene glycol.”\nas §7, §8"}, "[7]": {"assay": "Sensory malodor reduction test, Sniffin' Sticks odor pens, kitchen malodor", "details": "for Average Perceived Malodor Intensity (APMI) / Average Perceived Overall Odor Intensity (APOOI): scale 0-10", "procedure": "as §1, §2\nKitchen malodor: 30% by weight in propylene glycol\nas §3, §4, §5, §6\nas §6, with “Compound 1” for “Malodor”, “Compound 1” for “malodor”, “solution” for “solution,”\nas §6, with “Test samples:” for “Malodor only sample:”, “Compound 1” for “malodor”, “solution” for “solution,”, “malodor stock solution.” for “propylene glycol.”\nas §7, §8"}, "[8]": {"assay": "Sensory malodor reduction test, Sniffin' Sticks odor pens, bathroom malodor", "details": "for Average Perceived Overall Odor Intensity (APOOI) / Average Perceived Malodor Intensity (APMI): scale 0-10", "procedure": "as §1, §2\nBathroom malodor: 0.3% by weight in propylene glycol\nas §3, §4, §5, §6\nas §6, with “Compound 1” for “Malodor”, “Compound 1” for “malodor”, “solution” for “solution,”\nas §6, with “Test samples:” for “Malodor only sample:”, “Compound 1” for “malodor”, “solution” for “solution,”, “malodor stock solution.” for “propylene glycol.”\nas §7, §8"}, "[9]": {"assay": "Sensory malodor reduction test, Sniffin' Sticks odor pens, tobacco malodor", "details": "for Average Perceived Malodor Intensity (APMI) / Average Perceived Overall Odor Intensity (APOOI): scale 0-10", "procedure": "as §1\nThe tobacco malodor was prepared by extraction of cigarette debris, comprising: ash; filter; and, paper. The debris from 30 smoked Marlboro lied cigarettes (origin: Philip Morris International) was collected in a 500 ml glass powder jar with a screw closure. 300 ml of ethanol was added. The combination was mixed in a Turbula mixer for 8 hours and then filtered through a Whatman Grade 4 filter paper. The filtrate was used as the tobacco malodor.\nas §2\nTobacco malodor: 50% by weight in propylene glycol\nas §3, §4, §5, §6\nas §6, with “Compound 1” for “Malodor”, “Compound 1” for “malodor”, “solution” for “solution,”\nas §6, with “Test samples:” for “Malodor only sample:”, “Compound 1” for “malodor”, “solution” for “solution,”, “malodor stock solution.” for “propylene glycol.”\nThe samples were assessed by a panel of 19 trained panelists. […]"}, "[10]": {"details": "Compound 1 + Malodor vs Malodor Only"}, "[11]": {"details": "Compound 1 + Malodor: 0.01 g pet malodor, 0.32 g Compound 1, 1.67 g propylene glycol"}, "[12]": {"details": "Compound 1 Only: 0.32 g Compound 1, 1.68 g propylene glycol, pet malodor test"}, "[13]": {"details": "Compound 1 + Malodor: 0.01 g body malodor, 0.32 g Compound 1, 1.67 g propylene glycol"}, "[14]": {"details": "Compound 1 Only: 0.32 g Compound 1, 1.68 g propylene glycol, body malodor test"}, "[15]": {"details": "Compound 1 + Malodor: 0.60 g kitchen malodor, 0.32 g Compound 1, 1.08 g propylene glycol"}, "[16]": {"details": "Compound 1 Only: 0.32 g Compound 1, 1.68 g propylene glycol, kitchen malodor test"}, "[17]": {"details": "Compound 1 Only: 0.320 g Compound 1, 1.680 g propylene glycol, bathroom malodor test"}, "[18]": {"details": "Compound 1 + Malodor: 1.00 g tobacco malodor, 0.32 g Compound 1, 0.68 g propylene glycol"}, "[19]": {"details": "Compound 1 Only: 0.32 g Compound 1, 1.68 g propylene glycol, tobacco malodor test"}}, "note": "Marks after values point to notes of the source that are not given here."}
{"smiles": "O=C1CCC=CCCC=CCCC1", "note": "[Compound 1, 4,8-cyclododecadien-1-one]", "values": [{"measurement": "reducing the perceived intensity of pet malodor", "setting": "[1]; [10]", "value": "efficient"}, {"measurement": "Average Perceived Malodor Intensity (APMI)", "setting": "[1]; [11]", "value": "4.84 *"}, {"measurement": "Average Perceived Overall Odor Intensity (APOOI)", "setting": "[1]; [11]", "value": 6.70}, {"measurement": "Average Perceived Malodor Intensity (APMI)", "setting": "[1]; [12]", "value": "0.93 *"}, {"measurement": "Average Perceived Overall Odor Intensity (APOOI)", "setting": "[1]; [12]", "value": 6.01}, {"measurement": "activity in application", "setting": "[2]", "value": "(compound 1 is moderately active in application)"}, {"measurement": "MIC", "setting": "[2]; Streptococcus agalactiae, URI3, average of three replicates, 37° C. overnight", "value": 3430, "unit": "µg/mL"}, {"measurement": "activity in application", "setting": "[3]", "value": "(compound 1 is efficiently active in application)"}, {"measurement": "MIC", "setting": "[3]; Staphylococcus aureus, DSMZ1104, average of three replicates, 37° C. overnight", "value": 333, "unit": "µg/mL"}, {"measurement": "activity in application", "setting": "[4]", "value": "(compound 1 is efficiently active in application)"}, {"measurement": "MIC", "setting": "[4]; Staphylococcus haemolyticus, ATCC114126, average of three replicates, 37° C. overnight", "value": 345, "unit": "µg/mL"}, {"measurement": "activity in application", "setting": "[5]", "value": "(compound 1 is efficiently active in application)"}, {"measurement": "MIC", "setting": "[5]; Morganella morganii, URI62, average of three replicates, 37° C. overnight", "value": 900, "unit": "µg/mL"}, {"measurement": "reducing the perceived intensity of body malodor", "setting": "[6]; [10]", "value": "efficient"}, {"measurement": "Average Perceived Malodor Intensity (APMI)", "setting": "[6]; [13]", "value": "2.78 *"}, {"measurement": "Average Perceived Overall Odor Intensity (APOOI)", "setting": "[6]; [13]", "value": 5.61}, {"measurement": "Average Perceived Malodor Intensity (APMI)", "setting": "[6]; [14]", "value": "0.83 *"}, {"measurement": "Average Perceived Overall Odor Intensity (APOOI)", "setting": "[6]; [14]", "value": 6.39}, {"measurement": "reducing the perceived intensity of kitchen malodor", "setting": "[7]; [10]", "value": "efficient"}, {"measurement": "Average Perceived Malodor Intensity (APMI)", "setting": "[7]; [15]", "value": "2.49 *"}, {"measurement": "Average Perceived Overall Odor Intensity (APOOI)", "setting": "[7]; [15]", "value": 5.51}, {"measurement": "Average Perceived Malodor Intensity (APMI)", "setting": "[7]; [16]", "value": "0.95 *"}, {"measurement": "Average Perceived Overall Odor Intensity (APOOI)", "setting": "[7]; [16]", "value": 5.78}, {"measurement": "reducing the perceived intensity of bathroom malodor", "setting": "[8]; [10]", "value": "efficient"}, {"measurement": "Average Perceived Overall Odor Intensity (APOOI)", "setting": "[8]; Compound 1 + Malodor: 0.006 g bathroom malodor, 0.320 g Compound 1, 1.674 g propylene glycol", "value": 5.99}, {"measurement": "Average Perceived Malodor Intensity (APMI)", "setting": "[8]; Compound 1 + Malodor: 0.006 g bathroom malodor, 0.320 g Compound 1, 1.674 g propylene glycol, 19 panelists", "value": "1.61 *"}, {"measurement": "Average Perceived Malodor Intensity (APMI)", "setting": "[8]; [17]", "value": "0.91 *"}, {"measurement": "Average Perceived Overall Odor Intensity (APOOI)", "setting": "[8]; [17]", "value": 5.75}, {"measurement": "reducing the perceived intensity of tobacco malodor", "setting": "[9]; [10]", "value": "efficient"}, {"measurement": "Average Perceived Malodor Intensity (APMI)", "setting": "[9]; [18]", "value": "3.35 *"}, {"measurement": "Average Perceived Overall Odor Intensity (APOOI)", "setting": "[9]; [18]", "value": 5.85}, {"measurement": "Average Perceived Malodor Intensity (APMI)", "setting": "[9]; [19]", "value": "1.27 *"}, {"measurement": "Average Perceived Overall Odor Intensity (APOOI)", "setting": "[9]; [19]", "value": 6.07}]}
